According to US20130225669A1 (priority 2012, published 2013):

Test system: Bacillus atrophaeus spores
Assay: Qualitative antibacterial effects on spore strips in Releasat medium
Format: cell-based
Settings: one week treatment
Protocol: The antibacterial effects of genipin solutions on Bacillus atrophaeus spores was assessed. Using aseptic technique, B. atrophaeus mini spore strips (N=4 per group) with 1.2×10^6 spores per strip (North American Science Associates, Inc., Northwood, Ohio, USA) were either untreated, or treated with either 1 mL PBS, 0.625% genipin in PBS (1.4×10^13 genipin molecules per spore), 90% ethanol, 10% genipin in 90% ethanol (2.2×10^14 genipin molecules per spore), or 10% formalin for one week. Ten percent genipin was used in 90% ethanol for direct comparison to 10% formalin. Solutions were passed through a 0.2 μm Whatman filter (Fisher Scientific, Pittsburgh, Pa., USA) prior to being used to remove extraneous bacteria.
After treating the spore strips for one week they were transferred to Releasat® rapid-readout color changing vials (SGM Biotech, Bozeman, Mont., USA). Releasat® vials have specially formulated soybean-casein digest medium and a pH indicator designed to change color from orange to yellow in the presence of B. atrophaeus growth within 72 hours or remain orange if the spore strips are sterile. The spore strips treated with 10% genipin in 90% ethanol were removed from their respective medium vials and washed in 10 mL of sterile 90% ethanol for 15 minutes after it was noticed that within 90 minutes of placement into the Releasat® medium that the color changed from orange to brown (genipin-induced color change). These spore strips were placed in new Releasat® vials after washing. Spores were incubated at 37° C. and vials were checked after 24, 48, and 72 hours for color change and assessments of turbidity.

| Compound | color of Releasat medium (orange sterile, yellow growth) (10% formalin, read after 72 hours) | turbidity of medium (0.625% genipin in PBS) | color of Releasat medium (orange sterile, yellow growth) (0.625% genipin in PBS, within 24 hours) | turbidity of medium (10% genipin in 90% ethanol) | color of Releasat medium (orange sterile, yellow growth) (10% genipin in 90% ethanol, within 24 hours) |
| --- | --- | --- | --- | --- | --- |
| C=O [formalin, reference compound] | remained orange | – | – | – | – |
| COC(=O)C1=CO[C@@H](O)C2C(CO)=CC[C@H]12 (stereo in doubt) [genipin, methyl (1R,2R,6S)-2-hydroxy-9-(hydroxymethyl)-3-oxabicyclo [4.3.0]nona-4,8-diene-5-carboxylate] | – | less turbid than the PBS and untreated control at all time points | changed to yellow | less turbid than the 90% ethanol and untreated control after 24 and 48 hours only | changed to yellow |
